The target of this experiment is BaF3 V617F cells (Homo sapiens, UniProt O60674, V617F, cells depend on it). Briefly: Proliferation assay, BaF3 V617F cells (Cell Titer-Glo). The experiment is classed as cell-based, mouse. Conditions: proliferation for 72 hours at 37° C., stated to show ability to inhibit JAK2 activity, read-out: IC50 (the source's name). On the procedure:
BaF3 V617F cells are maintained and plated in RPMI with 10% FBS. Plating density for these cells is 1×10^5 cells/mL.
The cells were resuspended in a corresponding medium at a required cell density (see above). 100μ of cell suspension was added to each well of a flat bottom 96 well white plate. The compound was serially diluted in DMSO from 5 mM in 3-fold dilutions, and then diluted 1:250 in the RPMI 1640 medium containing 5% FBS and pen/strep. 100 μL of resulting 2× compound solution was added per well in duplicate and the cells were allowed to proliferate for 72 hours at 37° C.
Proliferation was measured using Cell Titer-Glo. The substrate was thawed and allowed to come to room temperature. After removal of top 100 μL of medium from each well, 100 μL of the premixed Cell Titer-Glo reagent was added to each well. The plates were mixed on an orbital shaker for three minutes to induce lysis and incubated at ambient temperature for an additional five minutes to allow the signal to equilibrate. The Luminescence was read on the Wallac Plate Reader.
The results of the ability of the compounds of the invention to inhibit JAK2 activity, when tested in the above assay, are shown in the following Table 2 wherein the level of activity (i.e., the IC50) for each compound is indicated in Table 2. The compound numbers in Table 2 refers to the compounds disclosed herein as being prepared by the methods disclosed herein.
A general note: ATP-based viability assays read luminescence as a measure of living cells.

Chain of BaF3 V617F cells (O60674 whole entry V617F): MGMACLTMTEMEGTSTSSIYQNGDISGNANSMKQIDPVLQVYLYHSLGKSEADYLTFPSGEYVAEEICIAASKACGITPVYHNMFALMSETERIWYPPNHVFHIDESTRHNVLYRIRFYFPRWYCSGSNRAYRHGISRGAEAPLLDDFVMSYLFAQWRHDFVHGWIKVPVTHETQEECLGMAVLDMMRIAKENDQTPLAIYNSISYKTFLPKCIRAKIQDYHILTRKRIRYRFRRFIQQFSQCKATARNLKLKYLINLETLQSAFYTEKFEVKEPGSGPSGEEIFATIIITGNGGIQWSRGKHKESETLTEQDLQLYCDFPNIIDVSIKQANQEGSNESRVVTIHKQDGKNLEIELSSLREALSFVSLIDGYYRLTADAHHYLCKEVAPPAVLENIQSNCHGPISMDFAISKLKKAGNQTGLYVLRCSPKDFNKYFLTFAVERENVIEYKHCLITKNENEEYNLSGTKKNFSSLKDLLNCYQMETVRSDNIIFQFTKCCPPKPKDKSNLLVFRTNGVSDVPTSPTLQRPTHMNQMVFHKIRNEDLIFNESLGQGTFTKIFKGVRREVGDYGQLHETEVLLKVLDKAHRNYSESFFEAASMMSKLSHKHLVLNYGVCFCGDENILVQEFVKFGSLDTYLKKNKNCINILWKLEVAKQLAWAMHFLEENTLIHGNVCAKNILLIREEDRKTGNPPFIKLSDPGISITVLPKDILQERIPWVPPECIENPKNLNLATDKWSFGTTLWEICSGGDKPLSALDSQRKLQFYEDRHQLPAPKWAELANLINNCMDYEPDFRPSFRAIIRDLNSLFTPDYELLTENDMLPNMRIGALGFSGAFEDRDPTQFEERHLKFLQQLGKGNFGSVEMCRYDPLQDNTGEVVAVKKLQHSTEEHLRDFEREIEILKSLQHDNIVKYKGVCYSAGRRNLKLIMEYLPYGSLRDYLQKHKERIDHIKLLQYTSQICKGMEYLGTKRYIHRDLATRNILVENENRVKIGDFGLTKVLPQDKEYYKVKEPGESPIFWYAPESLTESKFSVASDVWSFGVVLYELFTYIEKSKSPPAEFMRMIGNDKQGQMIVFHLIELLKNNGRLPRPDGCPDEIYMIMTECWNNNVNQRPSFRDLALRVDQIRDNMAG

Regarding `Cc1cnc(Nc2ccc3c(c2)[C@@H]2NC(=O)O[C@@H]2C3)nc1Nc1cccc2c1CCC2` [Compound 20, N4-(Indan-4-yl]-5-methyl-N2-[(3aS,8aR)-2-oxo-3,3a,8,8a-tetrahydro-2H-indeno[1,2-d]oxazol-5-yl]-2,4-pyrimidinediamine], the GI50 is under 250 nM.
For `O=C1N[C@H]2c3cc(Nc4ncc(Cl)c(Nc5cccc6c5OC(F)(F)O6)n4)ccc3C[C@H]2O1` [Compound 25, 5-Chloro-N4-(2,2-difluoro-1,3-benzodioxol-4-yl)-N2-[(3aS,8aR)-2-oxo-3,3a,8,8a-tetrahydro-2H-indeno[1,2-d]oxazol-5-yl]-2,4-pyrimidinediamine] the value was at least 5000 nM; for `O=C1CO[C@H]2Cc3ccc(Nc4ncc(Cl)c(Nc5ccc(CNS(=O)(=O)C6CC6)cc5)n4)cc3[C@H]2N1` [Compound 40, 5-Chloro-N4-[4-[[N-(cyclopropylsulfonyl)amino]methyl]phenyl]-N2-[(4aR,9aS)-3-oxo-2,3,4,4a,9a-hexahydroindeno[2,1-b][1,4]oxazin-6-yl]-2,4-pyrimidinediamine], under 250 nM.
The figure for `O=C1N[C@@H]2c3cc(Nc4ncc(F)c(Nc5ccc(OCc6ccccn6)cc5)n4)ccc3C[C@@H]2O1` [Compound 26, 5-Fluoro-N2-[(3aR,8aS)-2-oxo-3,3a,8,8a-tetrahydro-2H-indeno[1,2-d]oxazol-5-yl]-N4-[4-(pyridin-2-ylmethoxy)phenyl]-2,4-pyrimidinediamine] is 1000 to 5000 nM; for `Cc1cnc(Nc2ccc3c(c2)[C@@H]2NC(=O)O[C@@H]2C3)nc1Nc1cccc2c1CCCC2` [Compound 22, 5-Methyl-N2-[(3aS,8aR)-2-oxo-3,3a,8,8a-tetrahydro-2H-indeno[1,2-d]oxazol-5-yl]-N4-(5,6,7,8-tetrahydronaphthalen-1-yl)-2,4-pyrimidinediamine] it is 250 to 500 nM.
For `CCN1C(=O)C(C)(C)Oc2ccc(Nc3nc(Nc4ccc5c(c4)[C@@H]4NC(=O)O[C@@H]4C5)ncc3Cl)cc21` [Compound 12, 5-Chloro-N4-(2,2-dimethyl-4-ethyl-3-oxo-benz[1,4]oxazin-6-yl)-N2-[(3aS,8aR)-2-oxo-3,3a,8,8a-tetrahydro-2H-indeno[1,2-d]oxazol-5-yl]-2,4-pyrimidinediamine] the value was 250 to 500 nM; for `O=C1N[C@@H]2c3cc(Nc4ncc(Cl)c(Nc5cccc6c5CCC6)n4)ccc3CC2O1` (stereo partly drawn) [Compound 34, 5-Chloro-N4-(indan-4-yl]-5-methyl-N2-[(3aR,8aS)-2-oxo-3,3a,8,8a-tetrahydro-2H-indeno[1,2-d]oxazol-5-yl]-2,4-pyrimidinediamine], at least 5000 nM; for `Cc1cnc(Nc2ccc3c(c2)[C@H]2NC(=O)OC2C3)nc1Nc1ccc2c(n1)N(C)C(=O)C(C)(C)O2` (stereo partly drawn) [Compound 5, 5-Methyl-N2-[(3aR,8aS)-2-oxo-3,3a,8,8a-tetrahydro-2H-indeno[1,2-d]oxazol-5-yl]-N4-(2,2,4-trimethyl-3-oxo-5-pyrido[1,4]oxazin-6-yl)-2,4-pyrimidinediamine], under 250 nM.
As for `O=C1N[C@@H]2c3cc(Nc4ncc(Cl)c(Nc5ccc(CNS(=O)(=O)C6CC6)cc5)n4)ccc3C[C@@H]2O1` [Compound 8, 5-Chloro-N4-[4-[[N-(cyclopropylsulfonyl)amino]methyl]phenyl]-N2-[(3aR,8aS)-2-oxo-3,3a,8,8a-tetrahydro-2H-indeno[1,2-d]oxazol-5-yl]-2,4-pyrimidinediamine], the GI50 is under 250 nM.
For `CCCN1C(=O)COc2ccc(Nc3nc(Nc4ccc5c(c4)[C@H]4NC(=O)O[C@H]4C5)ncc3C)cc21` [Compound 6, 5-Methyl-N4-(4-propyl-3-oxo-2H-benz[1,4]oxazin-6-yl)-N2-[(3aR,8aS)-2-oxo-3,3a,8,8a-tetrahydro-2H-indeno[1,2-d]oxazol-5-yl]-2,4-pyrimidinediamine] the value was 250 to 500 nM.
On to `CC(C)(C)NS(=O)(=O)c1cccc(Nc2nc(Nc3ccc4c(c3)[C@@H]3NC(=O)O[C@@H]3C4)ncc2Cl)c1` [Compound 14, 5-Chloro-N4-[3-[[(1,1-dimethylethyl)amino]sulfonyl]phenyl]-N2-[(3aS,8aR)-2-oxo-3,3a,8,8a-tetrahydro-2H-indeno[1,2-d]oxazol-5-yl]-2,4-pyrimidinediamine], for which the GI50 was in the range of 500 to 1000 nM.
For `Cc1cc(CNS(=O)(=O)C2CC2)ccc1Nc1nc(Nc2ccc3c(c2)[C@@H]2NC(=O)O[C@@H]2C3)ncc1Cl` [Compound 17, 5-Chloro-N4-[4-[[N-(cyclopropylsulfonyl)amino]methyl]-2-methylphenyl]-N2-[(3aS,8aR)-2-oxo-3,3a,8,8a-tetrahydro-2H-indeno[1,2-d]oxazol-5-yl]-2,4-pyrimidinediamine] the value was 1000 to 5000 nM; for `Cc1cnc(Nc2ccc3c(c2)[C@H]2NC(=O)O[C@H]2C3)nc1Nc1ccc2c(c1)N(C)C(=O)C(C)(C)S2` [Compound 7, 5-Methyl-N2-[(3aR,8aS)-2-oxo-3,3a,8,8a-tetrahydro-2H-indeno[1,2-d]oxazol-5-yl]-N4-(2,2,4-trimethyl-3-oxo-benz[1,4]thiazin-6-yl)-2,4-pyrimidinediamine], under 250 nM; for `Cc1cnc(Nc2ccc3c(c2)[C@H]2NC(=O)O[C@H]2C3)nc1Nc1ccc(OCc2cccnc2)cc1` [Compound 31, 5-Methyl-N2-[(3aR,8aS)-2-oxo-3,3a,8,8a-tetrahydro-2H-indeno[1,2-d]oxazol-5-yl]-N4-[4-(pyridin-3-ylmethoxy)phenyl]-2,4-pyrimidinediamine], 250 to 500 nM.
Turning to `Cc1cnc(Nc2ccc3c(c2)[C@H]2NC(=O)O[C@H]2C3)nc1Nc1cccc2c1CCC2` [Compound 35, N4-(Indan-4-yl]-5-methyl-N2-[(3aR,8aS)-2-oxo-3,3a,8,8a-tetrahydro-2H-indeno[1,2-d]oxazol-5-yl]-2,4-pyrimidinediamine], the GI50 is under 250 nM.
As for `Cc1cnc(Nc2ccc3c(c2)[C@H]2NC(=O)O[C@H]2C3)nc1Nc1cccc2c1CCCC2` [Compound 37, 5-Methyl-N2-[(3aR,8aS)-2-oxo-3,3a,8,8a-tetrahydro-2H-indeno[1,2-d]oxazol-5-yl]-N4-(5,6,7,8-tetrahydronaphthalen-1-yl)-2,4-pyrimidinediamine], the GI50 was under 250 nM.
In the case of `O=C1N[C@H]2c3cc(Nc4ncc(F)c(Nc5ccc(CCc6ccncc6)cc5)n4)ccc3C[C@H]2O1` [Compound 33, 5-Fluoro-N2-[(3aS,8aR)-2-oxo-3,3a,8,8a-tetrahydro-2H-indeno[1,2-d]oxazol-5-yl]-N4-[4-[2-(pyridin-4-yl)ethyl]phenyl]-2,4-pyrimidinediamine], the GI50 fell in the range of 250 to 500 nM.
For `O=C1N[C@@H]2c3cc(Nc4ncc(Cl)c(Nc5ccc(CCNS(=O)(=O)C6CC6)cc5)n4)ccc3C[C@@H]2O1` [Compound 1, 5-Chloro-N4-[4-[2-[N-(cyclopropylsulfonyl)amino]ethyl]phenyl]-N2-[(3aR,8aS)-2-oxo-3,3a,8,8a-tetrahydro-2H-indeno[1,2-d]oxazol-5-yl]-2,4-pyrimidinediamine], the GI50 lay in the range of 1000 to 5000 nM.
For `O=C1N[C@H]2c3cc(Nc4ncc(Cl)c(Nc5cccc6c5CCC6)n4)ccc3CC2O1` (stereo partly shown) [Compound 19] the value was at least 5000 nM; for `Cc1cnc(Nc2ccc3c(c2)[C@@H]2NC(=O)O[C@@H]2C3)nc1Nc1ccc(OCc2cccnc2)cc1` [Compound 32, 5-Methyl-N2-[(3aS,8aR)-2-oxo-3,3a,8,8a-tetrahydro-2H-indeno[1,2-d]oxazol-5-yl]-N4-[4-(pyridin-3-ylmethoxy)phenyl]-2,4-pyrimidinediamine], 250 to 500 nM.
Consider `Cc1cnc(Nc2ccc3c(c2)[C@@H]2NC(=O)O[C@@H]2C3)nc1Nc1ccc2c(c1)NC(=O)C(C)(C)O2` [Compound 13, N4-(2,2-Dimethyl-3-oxo-4H-benz[1,4]oxazin-6-yl)-5-methyl-N2-[(3aS,8aR)-2-oxo-3,3a,8,8a-tetrahydro-2H-indeno[1,2-d]oxazol-5-yl]-2,4-pyrimidinediamine], for which the GI50 was in the range of 1000 to 5000 nM.
For `Cc1cnc(Nc2ccc3c(c2)[C@@H]2NC(=O)O[C@@H]2C3)nc1Nc1ccc2c(c1)N(C)C(=O)C(C)(C)O2` [Compound 9, 5-Methyl-N2-[(3aS,8aR)-2-oxo-3,3a,8,8a-tetrahydro-2H-indeno[1,2-d]oxazol-5-yl]-N4-(2,2,4-trimethyl-3-oxo-benz[1,4]oxazin-6-yl)-2,4-pyrimidinediamine] the value was 250 to 500 nM.
For `Cc1cnc(Nc2ccc3c(c2)[C@H]2NC(=O)O[C@H]2C3)nc1Nc1ccc2c(c1)N(C)C(=O)C(C)(C)O2` [Compound 2, 5-Methyl-N2-[(3aR,8aS)-2-oxo-3,3a,8,8a-tetrahydro-2H-indeno[1,2-d]oxazol-5-yl]-N4-(2,2,4-trimethyl-3-oxo-benz[1,4]oxazin-6-yl)-2,4-pyrimidinediamine] the value was under 250 nM; for `O=C1N[C@@H]2c3cc(Nc4ncc(F)c(Nc5ccc(CCc6ccncc6)cc5)n4)ccc3C[C@@H]2O1` [Compound 29, 5-Fluoro-N2-[(3aR,8aS)-2-oxo-3,3a,8,8a-tetrahydro-2H-indeno[1,2-d]oxazol-5-yl]-N4-[4-[2-(pyridin-4-yl)ethyl]phenyl]-2,4-pyrimidinediamine], 250 to 500 nM; for `Cc1cnc(Nc2ccc3c(c2)[C@H]2NC(=O)CO[C@H]2C3)nc1Nc1ccc2c(c1)N(C)C(=O)C(C)(C)O2` [Compound 38, 5-Methyl-N2-[(4aR,9aS)-3-oxo-2,3,4,4a,9a-hexahydroindeno[2,1-b][1,4]oxazin-6-yl]-N4-(2,2,4-trimethyl-3-oxo-benz[1,4]oxazin-6-yl)-2,4-pyrimidinediamine], 250 to 500 nM.

These data come from patent publication US8846908B2, “Tricyclic carbamate JAK inhibitors” (Rigel Pharmaceuticals, Inc., priority 2008, dated 2014).
